Data published in patent US12304813B2, “Sodium thiosulfate-containing pharmaceutical compositions” (Hope Medical Enterprises, Inc., priority 2009, dated 2025).

Experiments:
[1] = Example 1 batch
Procedure: In another embodiment, the sodium thiosulfate provided herein has a pH between about 6 to about 8 when measured in a 10% solution at 25° C. In certain embodiments, the pH of the sodium provided herein is measured using a pH meter. In certain embodiments, the pH of the sodium thiosulfate provided herein is determined according to Method 791 in USP XXXII (2009).

calciphylaxis = conditions: literature report, Archives of Dermatology 2007; cited from earlier work
vascular calcification = conditions: literature report, Kidney International 2008; cited from earlier work
[2] = tested on: platinum-induced ototoxicity; conditions: associated with platinum-containing chemotherapeutic agents; Current Opinions in Oncology 1995; cited from earlier work
[3] = tested on: platinum-induced nephrotoxicity; conditions: associated with platinum-containing chemotherapeutic agents; Current Opinions in Oncology 1995; cited from earlier work

For O.O.O.O.O.O=S([O-])([O-])=S.[Na+].[Na+] [sodium thiosulfate pentahydrate], the “pH of 10% solution at 25° C.” value [1] is listed as 6.6, the treatment for calciphylaxis (calciphylaxis) is listed as “effective treatment” and the “treatment for vascular calcification” value (vascular calcification) is listed as “effective treatment”. For the same compound, the “treatment to prevent platinum-induced ototoxicity” value [2] was “effective treatment” and the “treatment to prevent platinum-induced nephrotoxicity” value [3] was “effective treatment”.
